{"source": "patent US20220195389A1", "about": "“METHODS OF IMPROVING THE LONGEVITY OF IMMUNE CELLS” (University of Houston System, priority 2019, published 2022)", "system": "T cells", "experiment": "T-cell viability after incubation with compound C", "format": "cell-based, human", "conditions": "10 μM dorsomorphin, 6-24 hours", "method": "T cells were incubated with 10 μM dorsomorphin (Sigma Aldrich) for a period of 6-24 hours. The T cells were subsequently used for either motility assays or functional profiling using TIMING assays.", "data": [{"smiles": "c1cc(-c2cnn3cc(-c4ccc(OCCN5CCCCC5)cc4)cnc23)ccn1", "note": "[CC, dorsomorphin]", "values": [{"measurement": "impact on T-cell viability", "result": "did not have an impact"}]}]}
